Source: PMC12238253 (Nature Communications, 2025)

Molecular target: T1, His6-LIMP-2_35-430 (Homo sapiens, UniProt Q14108)
T1 sequence (Q14108 35-430): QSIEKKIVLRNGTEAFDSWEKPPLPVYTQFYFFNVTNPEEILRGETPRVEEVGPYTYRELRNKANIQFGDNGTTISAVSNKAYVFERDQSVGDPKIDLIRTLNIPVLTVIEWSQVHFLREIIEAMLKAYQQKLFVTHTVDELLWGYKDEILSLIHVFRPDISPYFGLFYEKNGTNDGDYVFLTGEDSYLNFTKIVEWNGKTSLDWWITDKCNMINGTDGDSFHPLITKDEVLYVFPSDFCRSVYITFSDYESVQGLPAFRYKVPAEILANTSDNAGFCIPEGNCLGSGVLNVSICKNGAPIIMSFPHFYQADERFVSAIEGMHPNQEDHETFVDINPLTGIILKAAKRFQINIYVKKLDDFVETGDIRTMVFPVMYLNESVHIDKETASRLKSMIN
Assay: microscale thermophoresis
Format: binding

Row | Kd [µM] | Compound
1 | 3.7 | CC(C)CCC[C@@H](C)[C@H]1CC[C@H]2[C@@H]3CC=C4C[C@@H](O)CC[C@]4(C)[C@H]3CC[C@]12C [cholesterol]
2 | 241 | COc1ccc2cc1Oc1ccc(cc1)C[C@H]1c3cc(c(OC)cc3CCN1C)Oc1c(OC)c(OC)cc3c1[C@H](C2)N(C)CC3 [Tetrandrine]
